Reference: patent publication US10301351B2, “Stitched polypeptides” (President and Fellows of Harvard College, priority 2007, dated 2019)
Bridge positions count the residues as written; N and C are the ends. Square brackets hold non-standard residues; d marks the D form. S8 = C=CCCCCCC[C@](C)(N)C(=O)O; R5 = C=CCCC[C@@](C)(N)C(=O)O; S5 = C=CCCC[C@](C)(N)C(=O)O; Aib = CC(C)(N)C(=O)O

Tests used:
[1] = Circular dichroism, temperature-dependent spectra and thermal unfolding curves; format: physicochemical
Procedure: Peptides were dissolved in water to described concentrations, and the concentrations were determined by absorbance spectroscopy (extinction coefficient for tryptophan, ε280=5690 cm^-1). Circular dichroism spectra were collected on a Jasco J-710 spectropolarimeter equipped with a temperature controller using the following standard measurement parameters: 0.5 nm step resolution, 20 nm/sec speed, 10 accumulations, 1 sec response, 1 nm bandwidth, 0.1 cm path length. All spectra were converted to a uniform scale of molar ellipticity after background subtraction. Temperature-dependent CD spectra of each peptide (94-100 μM) were recorded at varying temperatures (4° C. and every 10° C. from 10° C. to 90° C.) from 260 to 185 nm. CD measurements with varying concentrations (18, 48, 70, and 118 μM) of peptide 4 were performed at 20° C. To generate thermal unfolding curves, the ellipticity at 222 nm for each peptide (94-100 μM) was measured every 1° C. from 4 to 95° C. with temperature slope of 3° C./min. To obtain Tm, we analyzed the thermal unfolding curves using a two-state model as previously described with 95% confidence interval (see […]. Biophysic. J. 2003, 85, 1457-1465). […] However, peptide 4 retained more than 50% of their alpha-helicity even at 95° C.

trypsin = molecular target: T1, trypsin (Bos taurus, UniProt P00760); format: in vitro ADME; conditions: for slope of ln[S] versus time (first order kinetics of trypsin digestion): 0.1 M NH4HCO3 buffer pH 8.0, room temperature
T1 construct: purchased Pierce 20230
T1 sequence (P00760 24-246): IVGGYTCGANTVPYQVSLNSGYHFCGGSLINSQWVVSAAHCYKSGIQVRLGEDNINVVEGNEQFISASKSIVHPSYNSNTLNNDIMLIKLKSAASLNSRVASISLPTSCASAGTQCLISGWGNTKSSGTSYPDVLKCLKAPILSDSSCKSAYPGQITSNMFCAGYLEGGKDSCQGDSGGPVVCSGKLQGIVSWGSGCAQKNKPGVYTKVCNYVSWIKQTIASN
Procedure: 0.4 mL of trypsin immobilized on agarose (Pierce, catalog #20230) was washed with 0.8 mL of a digestion buffer (0.1 M NH4HCO3 buffer, pH 8.0). The gel was separated from the buffer after each wash by centrifugation. The washed enzyme was suspended in 1.6 mL of the digestion buffer. 350 μL of a peptide solution (24 μM) in the digestion buffer was mixed with 150 μL of the enzyme suspension and the resulting mixture was incubated with rapid shaking at room temperature for 10, 30, 90, 135, 180 minutes. The incubation was quenched by filtering off the enzyme, and the residual substrate in the filtrate was quantified by HPLC-based peak detection at 280 nm.

chymotrypsin = assay: Stability of peptides against chymotrypsin; format: in vitro ADME; conditions: compared with stapled peptide 5
[2] = Stability of peptides against guanidine hydrochloride (helicity); format: physicochemical

| alpha-helicity retained ([1]; at 95° C.) | slope of ln[S] versus time (first order kinetics of trypsin digestion) (trypsin) | half-life (trypsin; pH 8) | stability against chymotrypsin (in words) (chymotrypsin) | Compound | helical character by CD (in words) [1] | cooperative melting transition point (in words) ([1]; 4 to 95° C.) | thermal stability of the helix by CD (in words) ([1]; increasing temperature) | stability against the denaturing agent guanidine hydrochloride (in words) [2] | cooperative melting transition (Tm) ([1]; CD ellipticity at 222 nm, 4 to 95° C., peptide 94-100 μM in water, two-state model) |
| --- | --- | --- | --- | --- | --- | --- | --- | --- | --- |
| more than 50% | 4.04±0.16×10^−5 min^−1 | 2.87 h | higher level of stability | CC(=O)N[C@@H](CCC(=O)O)C(=O)N[C@@H](Cc1c[nH]c2ccccc12)C(=O)N[C@@H](C)C(=O)N[C@@]1(C)CCC/C=C\CCC[C@]2(CCC/C=C/CCCCCC[C@@](C)(C(N)=O)NC(=O)[C@H](Cc3c[nH]cn3)NC(=O)[C@H](C)NC(=O)[C@H](C)NC(=O)[C@H](CC(C)C)NC(=O)[C@H](Cc3ccccc3)NC(=O)[C@H](CCCCN)NC2=O)NC(=O)[C@H](C)NC(=O)[C@H](C)NC(=O)[C@H]([C@@H](C)O)NC1=O [Peptide 4] | displayed the characteristic CD signature of alpha-helices | did not have a cooperative melting transition point | less affected by increasing temperature than single-stapled peptides 5 and 6 | remains fully helical even at extremely high concentrations of guanidine salt | – |
| – | 7.11±0.66×10^−5 min^−1 | – | – | Peptide 5: single-stapled peptide, RCM product of Table 5 entry IX (SEQ ID 9) (Ac-EWA[Aib]TAA[R5]KFLAAH[S8]-NH2; staple 8-15 (inferred)) | – | – | – | – | 57 °C |
| – | – | – | – | Peptide 8: i+4+4 stitched peptide, double RCM product of Table 5 entry XI (SEQ ID 11) (Ac-EWA[S5]TAA[2‑amino‑2‑(pent-4-enyl)hept‑6‑enoic acid]KFL[R5]AHA-NH2; staple 8-12, 4-8) | helical character greater than the stapled peptide 5 and less than that of the i+4+7 stitched peptide 4 | did not have a cooperative melting transition point | – | – | – |
